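Growth conditions: 96-well plates. Treatment: test compound, 48 hours, 5 concentrations. Analysis: linear interpolation between bracketing concentrations; unreached endpoints set to highest concentration. At the GI50, growth is halved. The concentration for full growth arrest is given as TGI.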
Key:
Assay in all cases: NCI anticancer screen, dose series, 48 h
PC-3 prostate = test system: PC-3 prostate
NCI/ADR-RES ovarian = test system: NCI/ADR-RES ovarian
IGROV1 ovarian = test system: IGROV1 ovarian
LOX IMVI melanoma = test system: LOX IMVI melanoma
HCT-15 colon = test system: HCT-15 colon
RXF 393 renal = test system: RXF 393 renal
SK-MEL-2 melanoma = test system: SK-MEL-2 melanoma
MDA-N = test system: MDA-N
NCI-H226 lung = test system: NCI-H226 lung
A549 NSCLC = test system: A549 NSCLC
CAKI-1 renal = test system: CAKI-1 renal
DU-145 prostate = test system: DU-145 prostate
SF-295 CNS = test system: SF-295 CNS
T-47D breast = test system: T-47D breast
HL-60(TB) leukemia = test system: HL-60(TB) leukemia
HT29 colon = test system: HT29 colon
NCI-H460 lung = test system: NCI-H460 lung
SNB-19 CNS = test system: SNB-19 CNS

SMILES | TGI (PC-3 prostate) | TGI (NCI/ADR-RES ovarian) | TGI (IGROV1 ovarian) | TGI (LOX IMVI melanoma) | TGI (HCT-15 colon) | GI50 (RXF 393 renal) | TGI (RXF 393 renal) | TGI (SK-MEL-2 melanoma) | TGI (MDA-N) | GI50 (NCI-H226 lung) | TGI (NCI-H226 lung) | TGI (A549 NSCLC) | TGI (CAKI-1 renal) | TGI (DU-145 prostate) | TGI (SF-295 CNS) | TGI (T-47D breast) | TGI (HL-60(TB) leukemia) | TGI (HT29 colon) | TGI (NCI-H460 lung) | TGI (SNB-19 CNS)
C[C@@H](Oc1ccc(Oc2cnc3ccc(Cl)cc3n2)cc1)C(=O)O | > 100 µM | > 100 µM | > 100 µM | > 100 µM | > 100 µM | > 30.5 µM | > 100 µM | > 100 µM | > 100 µM | 67.1 µM | > 100 µM | > 100 µM | > 100 µM | > 100 µM | > 100 µM | > 100 µM | > 100 µM | > 100 µM | > 100 µM | > 100 µM
O=C(/C=C\c1ccsc1)c1ccccc1 | 24.1 µM | 32.4 µM | 22.2 µM | 7.58 µM | 14.6 µM |  | 18.7 µM | 34.4 µM | 25.8 µM |  | 34.1 µM | 8.48 µM | 8.12 µM | 25.4 µM | 29.3 µM | 19.7 µM | 4.16 µM | 15.5 µM | 25.2 µM | 25.9 µM
O=C1C(Cl)=C(N2CCN(CCOCCO)CC2)C(=O)c2ccccc21 | 31.9 µM | 25 µM | 28.6 µM | 17.7 µM | 24.4 µM |  | 8.91 µM | 23 µM | 4.17 µM |  | 31 µM | 34.2 µM | 29.5 µM | 34 µM | 32 µM | 3.34 µM | 14 µM | 30 µM | 32.8 µM | > 56.3 µM
CCOC(=O)c1cc(C2=CCNC2=O)c(-c2cc(C)no2)[nH]1 | > 100 µM | > 100 µM | > 100 µM | > 100 µM | > 100 µM |  | > 100 µM | > 100 µM | > 100 µM |  | > 100 µM | > 100 µM | > 100 µM | > 100 µM | > 100 µM | > 100 µM | 56.8 µM | > 100 µM | > 100 µM | > 100 µM
CC(=O)Nc1ncc2c(n1)-c1ccccc1OC2c1ccccc1 (stereo not given) | > 100 µM | > 100 µM | > 100 µM | > 100 µM | > 100 µM |  | 63.2 µM | > 100 µM | > 100 µM |  | 52.1 µM | > 100 µM | 68.3 µM | > 100 µM | > 100 µM | 68.4 µM | > 100 µM | > 100 µM | > 100 µM | 89.6 µM
CC1=NNC(=O)C1C1CC(c2c[nH]c3ccccc23)=NN(c2ccccc2)C1=O (stereo not given) | > 100 µM | > 100 µM | > 100 µM | > 100 µM | > 100 µM |  | > 100 µM | > 100 µM | > 100 µM |  | > 100 µM | > 100 µM | > 100 µM | > 100 µM | > 100 µM | > 100 µM | 92.4 µM | > 100 µM | > 100 µM | > 100 µM

Source: PubChem BioAssay (NCI)
